The data set deals with CCRIS mutagenicity, Ames/micronucleus/aberration tests. The data set can be described thus: CCRIS mutagenicity studies.

Activity calls are given as the source filed them. How the calls were made is not given here.

`Nc1cccc2cccc(S(=O)(=O)O)c12`: the mutagenic call is “inactive; negative” (Test System: AMES SALMONELLA TYPHIMURIUM, Strain/Indicator: TA98, Metabolic Activation: NONE, Method: PREINCUBATION); “active; positive” (Test System: AMES SALMONELLA TYPHIMURIUM, Strain/Indicator: TA98, Metabolic Activation: RAT LIVER S-9, PHENOBARBITAL AND BETA-NAPHTHOFLAVONE, Method: PREINCUBATION); “inactive; negative” (Test System: AMES SALMONELLA TYPHIMURIUM, Strain/Indicator: TA100, Metabolic Activation: NONE, Method: PREINCUBATION); “inactive; negative” (Test System: AMES SALMONELLA TYPHIMURIUM, Strain/Indicator: TA100, Metabolic Activation: RAT LIVER S-9, PHENOBARBITAL AND BETA-NAPHTHOFLAVONE, Method: PREINCUBATION); “inactive; negative” (Test System: AMES SALMONELLA TYPHIMURIUM, Strain/Indicator: TA1535, Metabolic Activation: NONE, Method: PREINCUBATION); “inactive; negative” (Test System: AMES SALMONELLA TYPHIMURIUM, Strain/Indicator: TA1535, Metabolic Activation: RAT LIVER S-9, PHENOBARBITAL AND BETA-NAPHTHOFLAVONE, Method: PREINCUBATION). Besides, the mutagenic call by setting is: (Test System: AMES SALMONELLA TYPHIMURIUM, Strain/Indicator: TA1537, Metabolic Activation: NONE, Method: PREINCUBATION) “inactive; negative”; (Test System: AMES SALMONELLA TYPHIMURIUM, Strain/Indicator: TA1537, Metabolic Activation: RAT LIVER S-9, PHENOBARBITAL AND BETA-NAPHTHOFLAVONE, Method: PREINCUBATION) “active; positive”; (Test System: AMES SALMONELLA TYPHIMURIUM, Strain/Indicator: TA1538, Metabolic Activation: NONE, Method: PREINCUBATION) “inactive; negative”; (Test System: AMES SALMONELLA TYPHIMURIUM, Strain/Indicator: TA1538, Metabolic Activation: RAT LIVER S-9, PHENOBARBITAL AND BETA-NAPHTHOFLAVONE, Method: PREINCUBATION) “active; positive”; (Test System: E.COLI, Strain/Indicator: WP2UVRA, Metabolic Activation: NONE, Method: PREINCUBATION) “inactive; negative”; (Test System: E.COLI, Strain/Indicator: WP2UVRA, Metabolic Activation: RAT LIVER S-9, PHENOBARBITAL AND BETA-NAPHTHOFLAVONE, Method: PREINCUBATION) “inactive; negative”.
Take `c1cnc2c(c1)-c1ncsc1CC2`: the mutagenic call (Test System: AMES SALMONELLA TYPHIMURIUM, Strain/Indicator: TA1538, Metabolic Activation: RAT, LIVER, S-9, AROCLOR 1254, Method: STANDARD PLATE) is “inactive; negative”.
Take `CCOC(=O)NCCOc1ccc(Oc2ccccc2)cc1`: the mutagenic call was “inactive; negative” (Test System: Ames Salmonella typhimurium, Strain/Indicator: TA97, Metabolic Activation: None, Method: Plate incorporation); “inactive; negative” (Test System: Ames Salmonella typhimurium, Strain/Indicator: TA97, Metabolic Activation: None, Method: Preincubation); “inactive; negative” (Test System: Ames Salmonella typhimurium, Strain/Indicator: TA97, Metabolic Activation: Rat, Liver, S-9, Phenobarbital and beta-naphthoflavone, Method: Plate incorporation); “inactive; negative” (Test System: Ames Salmonella typhimurium, Strain/Indicator: TA97, Metabolic Activation: Rat, Liver, S-9, Phenobarbital and beta-naphthoflavone, Method: Preincubation); “inactive; negative” (Test System: Ames Salmonella typhimurium, Strain/Indicator: TA98, Metabolic Activation: None, Method: Plate incorporation); “inactive; negative” (Test System: Ames Salmonella typhimurium, Strain/Indicator: TA98, Metabolic Activation: None, Method: Preincubation). In addition, the mutagenic call (Test System: Ames Salmonella typhimurium, Strain/Indicator: TA98, Metabolic Activation: Rat, Liver, S-9, Phenobarbital and beta-naphthoflavone, Method: Plate incorporation) is “inactive; negative”; the mutagenic call (Test System: Ames Salmonella typhimurium, Strain/Indicator: TA98, Metabolic Activation: Rat, Liver, S-9, Phenobarbital and beta-naphthoflavone, Method: Preincubation) is “inactive; negative”; the mutagenic call (Test System: Ames Salmonella typhimurium, Strain/Indicator: TA100, Metabolic Activation: None, Method: Plate incorporation) is “inactive; negative”; the mutagenic call (Test System: Ames Salmonella typhimurium, Strain/Indicator: TA100, Metabolic Activation: None, Method: Preincubation) was “inactive; negative”; the mutagenic call (Test System: Ames Salmonella typhimurium, Strain/Indicator: TA100, Metabolic Activation: Rat, Liver, S-9, Phenobarbital and beta-naphthoflavone, Method: Plate incorporation) is “inactive; negative”; the mutagenic call (Test System: Ames Salmonella typhimurium, Strain/Indicator: TA100, Metabolic Activation: Rat, Liver, S-9, Phenobarbital and beta-naphthoflavone, Method: Preincubation) was “inactive; negative”. In addition, the mutagenic call is “inactive; negative” (Test System: Ames Salmonella typhimurium, Strain/Indicator: TA102, Metabolic Activation: None, Method: Plate incorporation); “inactive; negative” (Test System: Ames Salmonella typhimurium, Strain/Indicator: TA102, Metabolic Activation: None, Method: Preincubation); “inactive; negative” (Test System: Ames Salmonella typhimurium, Strain/Indicator: TA102, Metabolic Activation: Rat, Liver, S-9, Phenobarbital and beta-naphthoflavone, Method: Plate incorporation); “inactive; negative” (Test System: Ames Salmonella typhimurium, Strain/Indicator: TA102, Metabolic Activation: Rat, Liver, S-9, Phenobarbital and beta-naphthoflavone, Method: Preincubation); “inactive; negative” (Test System: Ames Salmonella typhimurium, Strain/Indicator: TA1535, Metabolic Activation: None, Method: Plate incorporation); “inactive; negative” (Test System: Ames Salmonella typhimurium, Strain/Indicator: TA1535, Metabolic Activation: None, Method: Preincubation). In addition, the mutagenic call is “inactive; negative” (Test System: Ames Salmonella typhimurium, Strain/Indicator: TA1535, Metabolic Activation: Rat, Liver, S-9, Phenobarbital and beta-naphthoflavone, Method: Plate incorporation); “inactive; negative” (Test System: Ames Salmonella typhimurium, Strain/Indicator: TA1535, Metabolic Activation: Rat, Liver, S-9, Phenobarbital and beta-naphthoflavone, Method: Preincubation); “inactive; negative” (Test System: Ames Salmonella typhimurium, Strain/Indicator: TA1537, Metabolic Activation: None, Method: Plate incorporation); “inactive; negative” (Test System: Ames Salmonella typhimurium, Strain/Indicator: TA1537, Metabolic Activation: None, Method: Preincubation); “inactive; negative” (Test System: Ames Salmonella typhimurium, Strain/Indicator: TA1537, Metabolic Activation: Rat, Liver, S-9, Phenobarbital and beta-naphthoflavone, Method: Plate incorporation); “inactive; negative” (Test System: Ames Salmonella typhimurium, Strain/Indicator: TA1537, Metabolic Activation: Rat, Liver, S-9, Phenobarbital and beta-naphthoflavone, Method: Preincubation). The mutagenic call by setting is: (Test System: Ames Salmonella typhimurium, Strain/Indicator: TA1538, Metabolic Activation: None, Method: Plate incorporation) “inactive; negative”; (Test System: Ames Salmonella typhimurium, Strain/Indicator: TA1538, Metabolic Activation: None, Method: Preincubation) “inactive; negative”; (Test System: Ames Salmonella typhimurium, Strain/Indicator: TA1538, Metabolic Activation: Rat, Liver, S-9, Phenobarbital and beta-naphthoflavone, Method: Plate incorporation) “inactive; negative”; (Test System: Ames Salmonella typhimurium, Strain/Indicator: TA1538, Metabolic Activation: Rat, Liver, S-9, Phenobarbital and beta-naphthoflavone, Method: Preincubation) “inactive; negative”.
In the case of `CN1CSC(=S)N(C)C1`, the mutagenic call (End Point: In vivo micronucleus, Test System: Micronucleated polychromatic erythrocytes, Species: Mouse, Strain/Sex: NMRI / Males and females, Route: Oral) was “inactive; negative”.

The values are drawn from PubChem BioAssay AID1259407 (Chemical Carcinogenesis Research Information System (CCRIS), 2018).
